Laboratory results published in patent US5116822A, “Therapeutic application of dideoxycytidinene” (priority 1990, dated 1992).

Experiments:
[1] = system: HIV-infected ATH8 cells / human lymphoid cell lines; details: compared with corresponding saturated derivatives; cited from earlier work
HIV [2] = details: cited from earlier work
polio virus type 1 = experiment: organism not typed; format: cell-based; details: read-out: 50% effective inhibitory dose (EID50)
Raji cells = experiment: Cytostatic effect (inhibition of cell proliferation); format: cell-based; details: Homo sapiens, read-out: IC50 (50%-inhibitory concentration, cell proliferation)
Description: (§1) The compounds ddeCyd and ddCyd were evaluated for their cytostatic effect against a series of murin and human cell lines. This was based upon measuring the inhibition of cell proliferation according to the procedures described by De Clercq et al. in Mol.Pharmacol. 19, 321-330 (1981).
(§2) The following cell lines were used: murine leukemia L1210 cells, designated L1210/0; murine mammary carcinoma FM3A cells; human B-lymphoblast Raji cells; human T-lymphoblast Molt/4F cells; human T4 -lymphocyte ATH8 cells and human T4 -lymphocyte MT-4 cells.

MT-4 cells = experiment: as above; format: cell-based; details: Homo sapiens, MT4, read-out: IC50 (50%-inhibitory concentration, cell proliferation)
Description: as §1, §2

Molt/4F cells = experiment: as above; format: cell-based; details: Homo sapiens, read-out: IC50 (50%-inhibitory concentration, cell proliferation)
Description: as §1, §2

ATH8 cells = experiment: as above; format: cell-based; details: Homo sapiens, ATH-8, read-out: IC50 (50%-inhibitory concentration, cell proliferation)
Description: as §1, §2

Sindbis virus = experiment: Antiviral activity against other viruses; format: cell-based; details: HeLa, Vero or PRK cell cultures, read-out: 50% effective inhibitory dose (EID50)
[3] = system: herpes simplex virus type 2; experiment: Antiviral activity against other viruses; format: cell-based; details: Human alphaherpesvirus 2, HeLa, Vero or PRK cell cultures, read-out: 50% effective inhibitory dose (EID50)
HIV [4] = experiment: microbe, parasite or virus in culture; format: cell-based
HIV [5] = experiment: Protection against HIV replication in MT-4 cells; format: cell-based; details: for inhibition at 0.1 µM: Human immunodeficiency virus 1, MT4, 0.1 μM
HIV [6] = experiment: microbe, parasite or virus in culture; format: cell-based; details: for EC50: Human immunodeficiency virus 1, ATH-8, read-out: EID50 for inhibition of HIV cytopathogenicity
HIV [7] = experiment: microbe, parasite or virus in culture; format: cell-based; details: Human immunodeficiency virus 1, MT4, read-out: % Inhibition of viral antigen expression
Coxsackie B4 virus = experiment: Antiviral activity against other viruses; format: cell-based; details: Enterovirus B, HeLa, Vero or PRK cell cultures, read-out: 50% effective inhibitory dose (EID50)
[8] = system: herpes simplex virus type 1; experiment: Antiviral activity against other viruses; format: cell-based; details: Human alphaherpesvirus 1, HeLa, Vero or PRK cell cultures, read-out: 50% effective inhibitory dose (EID50)
[9] = system: DNA viruses and RNA viruses; experiment: Antiviral activity against other viruses, overall statement; format: cell-based; details: in words
L1210/0 cells = experiment: Cytostatic effect (inhibition of cell proliferation); format: cell-based, murine; details: Mus musculus, read-out: IC50 (50%-inhibitory concentration, cell proliferation)
Description: as §1, §2

FM3A cells = experiment: as above; format: cell-based, murine; details: Mus musculus, read-out: IC50 (50%-inhibitory concentration, cell proliferation)
Description: as §1, §2

reovirus type 1 = experiment: Antiviral activity against other viruses; format: cell-based; details: Mammalian orthoreovirus 1, HeLa, Vero or PRK cell cultures, read-out: 50% effective inhibitory dose (EID50)
[10] = system: vesicular stomatitis virus; experiment: microbe, parasite or virus in culture; format: cell-based; details: read-out: 50% effective inhibitory dose (EID50)
[11] = system: parainfluenza virus type 3; experiment: Antiviral activity against other viruses; format: cell-based; details: Human respirovirus 3, HeLa, Vero or PRK cell cultures, read-out: 50% effective inhibitory dose (EID50)
vaccinia virus = experiment: microbe, parasite or virus in culture; format: cell-based; details: Orthopoxvirus vaccinia, read-out: 50% effective inhibitory dose (EID50)

Row | Compound | protection of HIV-infected ATH8 cells and/or cytostatic activity against human lymphoid cell lines [1] | EC50 (polio virus type 1) | IC50 (Raji cells) | IC50 (MT-4 cells) | IC50 (Molt/4F cells) | IC50 (ATH8 cells) | EC50 (Sindbis virus) | EC50 [3] | antiviral potency upon prolonged exposure (HIV [4]) | inhibition at 0.1 µM (HIV [5]) | EC50 (HIV [6]) | inhibition at 0.1 µM (HIV [7]) | inhibition at 0.5 µM (HIV [7]) | inhibition at 2 µM (HIV [7]) | inhibition at 5 µM (HIV [7]) | inhibition at 20 µM (HIV [7]) | EC50 (Coxsackie B4 virus) | EC50 [8] | antiviral effect against other (non-oncogenic RNA and DNA) viruses [9] | IC50 (L1210/0 cells) | also measured
1 | Nc1ncnc2c1ncn2[C@H]1C=C[C@@H](CO)O1 [2',3'-unsaturated 2',3'-dideoxyadenosine] | significantly less protective against HIV-infected ATH8 cells and/or considerably more cytostatic against human lymphoid cell lines | – | – | – | – | – | – | – | – | – | – | – | – | – | – | – | – | – | – | – | –
2 | Cc1cn([C@H]2C=C[C@@H](CO)O2)c(=O)[nH]c1=O [2',3'-unsaturated 2',3'-dideoxythymidine] | significantly less protective against HIV-infected ATH8 cells and/or considerably more cytostatic against human lymphoid cell lines | – | – | – | – | – | – | – | – | – | – | – | – | – | – | – | – | – | – | – | –
3 | Cc1cn([C@H]2C[C@H](N=[N+]=[N-])[C@@H](CO)O2)c(=O)[nH]c1=O [azidothymidine, 3'-azido-2',2'-dideoxythymidine] | – | – | – | – | – | – | – | – | – | – | – | – | – | – | – | – | – | – | – | – | inhibition of HIV replication (HIV [2]; lymphocyte cultures): potent inhibitor of HIV replication
4 | Nc1ccn([C@H]2CC[C@@H](CO)O2)c(=O)n1 [ddCyd, 2',3'-dideoxycytidine, reference compound] | – | > 100 µM | 12 µM | 35 µM | 17 µM | 35 µM | > 100 µM | > 100 µM | without decrease upon prolonged exposure | 75% | 0.1 to 0.3 µM | 70% | 96% | 97% | 97% | 96% | > 100 µM | > 100 µM | neither ddeCyd nor ddCyd demonstrated any significant antiviral effect | 320 µM | concentration effecting complete antiviral protection (HIV [2]; in vitro): 0.5 to 1.0 µM; protection of ATH8 cells (HIV [4]; 0.5 μM, ATH8 cells, no decrease upon prolonged exposure): completely protected; inhibition at 0.1 µM (HIV [4]; Human immunodeficiency virus 1, ATH-8, 0.1 μM, ATH8 cells, no decrease upon prolonged exposure, read-out: protection against HIV replication in ATH8 cells): 75%; protection of MT-4 cells (HIV [5]; 0.5 μM, in words): completely protected; IC50 (FM3A cells): > 2370 µM; EC50 (reovirus type 1): > 100 µM; EC50 [10]: > 100 µM; EC50 [11]: > 100 µM; EC50 (vaccinia virus): > 100 µM
5 | Nc1ccn([C@H]2C=C[C@@H](CO)O2)c(=O)n1 [ddeCyd, 2',3'-didehydro-2'-3'-dideoxycytidine] | – | > 100 µM | 13 µM | 15 µM | 20 µM | 30 µM | > 100 µM | > 100 µM | decrease in antiviral potency | 28% | 0.1 to 0.3 µM | 20% | 85% | 98% | 98% | 96% | > 100 µM | > 100 µM | neither ddeCyd nor ddCyd demonstrated any significant antiviral effect | 196 µM | protection of cells against destruction by the virus (HIV [4]): almost complete protection; protective effect at a longer time interval (HIV [4]; 10 days (vs 7 days), ATH8 cells): somewhat lower; inhibition at 0.1 µM (HIV [4]; Human immunodeficiency virus 1, ATH-8, 168 h, read-out: protection of cells against destruction by the virus): ~40%; EC (optimum protection) (HIV [4]; Human immunodeficiency virus 1, ATH-8, 240 h, 10 days, ATH8 cells, read-out: concentration for optimum protection): ~2 µM; inhibition at 0.5 µM (HIV [5]; Human immunodeficiency virus 1, MT4, 0.5 μM): 91%; effectiveness in inhibiting cytopathogenicity and antigen expression of HIV (HIV [6]; ATH 8 and MT-4 cells, compared with 2',3'-dideoxycytidine): almost as effective as 2',3'-dideoxycytidine; fold by which HIV-inhibiting concentrations are below any toxicity for the host cells (HIV [6]; T-cells): at least 100 fold; inhibition of human immunodeficiency virus in cell cultures (HIV [6]; in words): potent and selective inhibitor of human immunodeficiency virus in cell cultures; inhibition at 0.02 µM (HIV [7]; 0.02 μM): 8%; antiviral effect against other (non-oncogenic RNA and DNA) viruses ([9]; listed as 2',3'-dideoxycytidinene): not show any inhibitory effect; IC50 (FM3A cells): 1160 µM; EC50 (reovirus type 1): > 100 µM; EC50 [10]: > 100 µM; EC50 [11]: > 100 µM; EC50 (vaccinia virus): > 100 µM
